Results published in PubChem BioAssay (NCI).
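Interpolation was linear, between the two tested concentrations surrounding the appropriate level; five concentrations were tested over 48 hours in 96-well plates. The concentration for full growth arrest is given as TGI.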

Assays:
Experiment in all cases: NCI anticancer screen, dose series, 48 h
XF 498 CNS = tested on: XF 498 CNS
HCC-2998 colon = tested on: HCC-2998 colon
SF-268 CNS = tested on: SF-268 CNS
OVCAR-8 ovarian = tested on: OVCAR-8 ovarian
KM20L2 colon = tested on: KM20L2 colon
M19-MEL melanoma = tested on: M19-MEL melanoma
MDA-N = tested on: MDA-N
SF-295 CNS = tested on: SF-295 CNS
SNB-19 CNS = tested on: SNB-19 CNS
OVCAR-3 ovarian = tested on: OVCAR-3 ovarian
SF-539 CNS = tested on: SF-539 CNS
LXFL 529 NSCLC = tested on: LXFL 529 NSCLC
IGROV1 ovarian = tested on: IGROV1 ovarian
KM12 colon = tested on: KM12 colon
MDA-MB-231 breast = tested on: MDA-MB-231 breast
HOP-18 NSCLC = tested on: HOP-18 NSCLC
CAKI-1 renal = tested on: CAKI-1 renal
M14 melanoma = tested on: M14 melanoma
RXF-631 renal = tested on: RXF-631 renal
PC-3 prostate = tested on: PC-3 prostate
DLD-1 colon = tested on: DLD-1 colon
NCI-H522 lung = tested on: NCI-H522 lung
MOLT-4 leukemia = tested on: MOLT-4 leukemia
HOP-62 NSCLC = tested on: HOP-62 NSCLC
HT29 colon = tested on: HT29 colon
HS 578T breast = tested on: HS 578T breast
BT-549 breast = tested on: BT-549 breast
MALME-3M melanoma = tested on: MALME-3M melanoma
SK-MEL-5 melanoma = tested on: SK-MEL-5 melanoma
HCT-116 colon = tested on: HCT-116 colon
786-0 renal = tested on: 786-0 renal
OVCAR-5 ovarian = tested on: OVCAR-5 ovarian
COLO 205 colon = tested on: COLO 205 colon
UO-31 renal = tested on: UO-31 renal
SK-OV-3 ovarian = tested on: SK-OV-3 ovarian
SK-MEL-28 melanoma = tested on: SK-MEL-28 melanoma
SNB-75 CNS = tested on: SNB-75 CNS
NCI-H23 lung = tested on: NCI-H23 lung
A498 renal = tested on: A498 renal
RXF 393 renal = tested on: RXF 393 renal
DMS 273 small cell lung = tested on: DMS 273 small cell lung
A549 NSCLC = tested on: A549 NSCLC
UACC-257 melanoma = tested on: UACC-257 melanoma
UACC-62 melanoma = tested on: UACC-62 melanoma
MDA-MB-435 = tested on: MDA-MB-435
SNB-78 CNS = tested on: SNB-78 CNS
ACHN renal = tested on: ACHN renal
U251 CNS = tested on: U251 CNS
DU-145 prostate = tested on: DU-145 prostate
HOP-92 NSCLC = tested on: HOP-92 NSCLC
SN12C renal = tested on: SN12C renal
OVCAR-4 ovarian = tested on: OVCAR-4 ovarian
T-47D breast = tested on: T-47D breast
SW-620 colon = tested on: SW-620 colon
TK-10 renal = tested on: TK-10 renal
HCT-15 colon = tested on: HCT-15 colon
EKVX NSCLC = tested on: EKVX NSCLC
DMS 114 small cell lung = tested on: DMS 114 small cell lung
NCI-H460 lung = tested on: NCI-H460 lung
NCI-H226 lung = tested on: NCI-H226 lung
LOX IMVI melanoma = tested on: LOX IMVI melanoma
SK-MEL-2 melanoma = tested on: SK-MEL-2 melanoma

`Cc1cc(NCCCCCCCNc2cc(C)nc3cc([N+](=O)[O-])ccc23)c2ccc([N+](=O)[O-])cc2n1` was tested, and the TGI (XF 498 CNS) was greater than 48.1 µM, the TGI (HCC-2998 colon) was greater than 55.6 µM and the TGI (SF-268 CNS) was 7.5 µM. It also gave a TGI (OVCAR-8 ovarian) of 3.85 µM, a TGI (KM20L2 colon) of 32 µM and a TGI (M19-MEL melanoma) of 35.9 µM. The TGI (MDA-N) was 3.18 µM, the TGI (SF-295 CNS) was 26.4 µM and the TGI (SNB-19 CNS) was 39.5 µM. It also gave a TGI (OVCAR-3 ovarian) of 25 µM, a TGI (SF-539 CNS) of 39.5 µM and a TGI (LXFL 529 NSCLC) of 3.14 µM. The TGI (IGROV1 ovarian) was 37.1 µM, the TGI (KM12 colon) was 3.74 µM and the TGI (MDA-MB-231 breast) was 6.58 µM. The TGI (HOP-18 NSCLC) was 31.1 µM, the TGI (CAKI-1 renal) was 65.2 µM and the TGI (M14 melanoma) was 41.2 µM. The TGI (RXF-631 renal) was greater than 45.9 µM, the TGI (PC-3 prostate) was 31.1 µM and the TGI (DLD-1 colon) was 3.55 µM. The TGI (NCI-H522 lung) was 2.78 µM, the TGI (MOLT-4 leukemia) was 4.23 µM and the TGI (HOP-62 NSCLC) was 42 µM. For the same molecule, the TGI (HT29 colon) was 8.43 µM, the TGI (HS 578T breast) was 5.53 µM and the TGI (BT-549 breast) was 67.3 µM. The TGI (MALME-3M melanoma) was greater than 71.1 µM, the TGI (SK-MEL-5 melanoma) was 29.9 µM and the TGI (HCT-116 colon) was 3.56 µM. The TGI (786-0 renal) was 39.3 µM, the TGI (OVCAR-5 ovarian) was 29.8 µM and the TGI (COLO 205 colon) was 27 µM. The TGI (UO-31 renal) was 29 µM, the TGI (SK-OV-3 ovarian) was 49.3 µM and the TGI (SK-MEL-28 melanoma) was 10.1 µM. For the same molecule, the TGI (SNB-75 CNS) was 40.9 µM, the TGI (NCI-H23 lung) was greater than 24.9 µM and the TGI (A498 renal) was 30.4 µM. For the same molecule, the TGI (RXF 393 renal) was 22.9 µM, the TGI (DMS 273 small cell lung) was 15.5 µM and the TGI (A549 NSCLC) was 9.41 µM. For the same molecule, the TGI (UACC-257 melanoma) was 36.9 µM, the TGI (UACC-62 melanoma) was 53.2 µM and the TGI (MDA-MB-435) was 39 µM. For the same molecule, the TGI (SNB-78 CNS) was greater than 31.6 µM, the TGI (ACHN renal) was 28.5 µM and the TGI (U251 CNS) was 27.4 µM. The TGI (DU-145 prostate) was 11 µM, the TGI (HOP-92 NSCLC) was 47 µM and the TGI (SN12C renal) was 13.4 µM. It also gave a TGI (OVCAR-4 ovarian) of 4.31 µM, a TGI (T-47D breast) of 18.5 µM and a TGI (SW-620 colon) of 4.61 µM. The TGI (TK-10 renal) was 39 µM, the TGI (HCT-15 colon) was 9.8 µM and the TGI (EKVX NSCLC) was 35.9 µM. The TGI (DMS 114 small cell lung) was 3.28 µM, the TGI (NCI-H460 lung) was 6.36 µM and the TGI (NCI-H226 lung) was 37.4 µM. The TGI (LOX IMVI melanoma) was 5.69 µM and the TGI (SK-MEL-2 melanoma) was 98.3 µM.
